Key:
[1] = Antioxidant activity assessed as DPPH-radical scavenging activity at 1 mM incubated for 30 mins under dark condition; type: functional
Tyrosinase = molecular target: T1, Tyrosinase (Agaricus bisporus, UniProt O42713); assay: Inhibition of mushroom tyrosinase using L-tyrosine as substrate measured after 30 mins
T1 sequence (O42713 whole entry): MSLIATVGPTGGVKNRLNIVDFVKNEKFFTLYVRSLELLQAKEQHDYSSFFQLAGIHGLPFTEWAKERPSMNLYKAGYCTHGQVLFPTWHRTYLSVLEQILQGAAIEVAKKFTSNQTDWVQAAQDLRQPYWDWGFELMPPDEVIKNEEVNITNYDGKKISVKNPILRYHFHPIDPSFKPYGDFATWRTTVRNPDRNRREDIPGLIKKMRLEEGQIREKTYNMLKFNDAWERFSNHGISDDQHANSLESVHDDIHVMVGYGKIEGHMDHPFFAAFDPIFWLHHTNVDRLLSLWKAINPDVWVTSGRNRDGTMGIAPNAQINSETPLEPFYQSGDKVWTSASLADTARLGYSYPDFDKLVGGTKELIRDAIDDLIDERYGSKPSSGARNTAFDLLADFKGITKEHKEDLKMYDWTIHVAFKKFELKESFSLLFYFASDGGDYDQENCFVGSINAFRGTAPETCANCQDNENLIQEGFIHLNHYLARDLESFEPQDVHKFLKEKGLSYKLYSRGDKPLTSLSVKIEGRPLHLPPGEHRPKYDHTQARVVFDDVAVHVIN

[2] = Cytotoxicity against mouse B16F10 cells assessed as cell viability at 25 uM after 24 hrs by MTT assay relative to control; type: cell-based, B16-F10; settings: read-out: Activity
[3] = molecular target: T2, Tyrosinase (Agaricus bisporus) (UniProt O42713); assay: Competitive inhibition of mushroom tyrosinase using varying levels of L-tyrosine as substrate measured after 30 mins by Lineweaver-Burk plot analysis
T2 sequence (whole entry): T1 sequence (O42713 whole entry)

[4] = Cytotoxicity against mouse B16F10 cells assessed as cell viability at 10 uM after 24 hrs by MTT assay relative to control; type: cell-based, B16-F10; settings: read-out: Activity
B16-F10 = assay: Antimelanogenic activity in mouse B16F10 cells assessed as inhibition of alpha-MSH-stimulated melanin synthesis measured after 24 hrs by ELISA; type: functional, cell-based
[5] = molecular target: T3, Tyrosinase (Mus musculus) (UniProt P11344); assay: Inhibition of tyrosinase in alpha-MSH stimulated mouse B16F10 cells using L-dopa as substrate pretreated for 24 hrs followed by substrate addition and measured after 30 mins
T3 sequence (whole entry): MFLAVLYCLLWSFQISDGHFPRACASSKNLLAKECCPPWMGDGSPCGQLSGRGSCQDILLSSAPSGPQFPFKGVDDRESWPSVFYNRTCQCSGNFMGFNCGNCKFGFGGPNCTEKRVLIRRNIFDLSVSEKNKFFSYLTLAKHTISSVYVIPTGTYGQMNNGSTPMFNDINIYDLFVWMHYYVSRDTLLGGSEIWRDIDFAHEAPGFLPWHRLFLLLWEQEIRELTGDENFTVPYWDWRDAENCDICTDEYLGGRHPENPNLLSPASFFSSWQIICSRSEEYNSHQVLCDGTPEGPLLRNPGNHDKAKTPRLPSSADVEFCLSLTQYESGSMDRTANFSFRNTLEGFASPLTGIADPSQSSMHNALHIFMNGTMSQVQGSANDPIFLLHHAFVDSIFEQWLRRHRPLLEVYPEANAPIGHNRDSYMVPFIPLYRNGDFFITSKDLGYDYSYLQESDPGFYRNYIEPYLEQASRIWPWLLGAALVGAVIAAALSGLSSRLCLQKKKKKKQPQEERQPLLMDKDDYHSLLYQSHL

[6] = Cytotoxicity against mouse B16F10 cells assessed as cell viability at 5 uM after 24 hrs by MTT assay relative to control; type: cell-based, B16-F10; settings: read-out: Activity
[7] = molecular target: T2, Tyrosinase (Agaricus bisporus); settings: 500 uM
Description: Inhibition of mushroom tyrosinase at 500 uM using L-tyrosine as substrate measured after 30 mins relative to control

Row | SMILES | Activity [1] [%] | also measured
1 | O=C1ON=C(c2ccccc2)/C1=C/c1ccc(O)cc1O | 46 | IC50 (Tyrosinase): 32.1 µM
2 | O=C1ON=C(c2ccccc2)/C1=C/c1ccc(O)cc1 | 48.4 | 
3 | O=C1ON=C(c2ccccc2)/C1=C/c1ccccc1O | 74.4 | 
4 | O=C1ON=C(c2ccccc2)/C1=C/c1ccc(O)c(Br)c1 | 82.6 | viability at 24 h, 25 µM [2]: 96.3%; inhibition [3]: Dose-dependent effect; viability at 24 h, 10 µM [4]: 98.7%; inhibition (B16-F10): Dose-dependent effect; IC50 (Tyrosinase): 14.6 µM; inhibition [5]: Dose-dependent effect; viability at 24 h, 5 µM [6]: 100%
5 | COc1cc(/C=C2\C(=O)ON=C2c2ccccc2)cc(OC)c1O | 94.8 | 
6 | COc1ccc(/C=C2\C(=O)ON=C2c2ccccc2)cc1OC | 49.8 | 
7 | CCOc1ccc(/C=C2\C(=O)ON=C2c2ccccc2)cc1O | 66.4 | 
8 | COc1ccc(/C=C2\C(=O)ON=C2c2ccccc2)cc1O | 54.2 | 
9 | OC[C@H]1O[C@@H](Oc2ccc(O)cc2)[C@H](O)[C@@H](O)[C@@H]1O |  | inhibition [7]: 32.6%
10 | COc1cc(/C=C2\C(=O)ON=C2c2ccccc2)ccc1O | 75.3 | 
11 | COc1ccc(/C=C2\C(=O)ON=C2c2ccccc2)cc1 | 47.2 | 
12 | O=C1ON=C(c2ccccc2)/C1=C/c1ccc(O)c(O)c1 | 98.6 | 
13 | COc1ccc(/C=C2\C(=O)ON=C2c2ccccc2)c(OC)c1 | 41.8 | 
14 | O=C1O[C@H]([C@@H](O)CO)C(O)=C1O | 87.5 | 
